Measured values reported in patent US20150157588A1, “Pharmaceutical Composition Comprising Amino-Phenyl-Acetic Acid Octadec-(Z)-9-enyl Ester and Use Thereof for Treating Tumors” (Yeda Research and Development Co., Ltd., priority 2012, published 2015).

Assays:
[1] = test system: p53 expressing L-12 mouse B cell line; assay: Apoptosis by hypo-diploid nuclei PI staining, transformed B cell line; format: cell-based; conditions: 10 or 100 μg per ml in 5% ethanol solution, 48 h
Experimental: Apoptosis was measured by FACS analysis with a hypo-diploid nuclei propidium iodide (PI) staining of an amino-phenyl-acetic acid octadec-(Z)-9-enyl ester treated p53 expressing L-12 mouse B cell line. FIGS. 4A-4C: L-12 cells treated with 0, 10 or 100 μg/ml of amino-phenyl-acetic acid octadec-(Z)-9-enyl ester in ethanol solution, respectively; FIGS. 4D-4F: L-12 cells treated with 0, 10 or 100 μg/ml of the control reagent 4-methyl-piperazino-acetic acid ethyl ester in ethanol solution, respectively; and FIGS. 4G-4I: L-12 cells treated with an ethanol volume corresponding to 0, 10 or 100 μg/ml of amino-phenyl-acetic acid octadec-(Z)-9-enyl ester, respectively. FL2-A is the measure of fluorescence. […]
(§1) B or T-cell apoptosis was detected by flow cytometry. […] The cells were then subjected to flow cytometric analysis; for each sample 10,000 were collected and cell-cycle distribution was analyzed according to relative DNA content (PI staining). […] The cells were then collected, stained by APO-DIRECT TUNNEL kit (Phnxflow, CITY, Calif., USA); mitochondrial potential was measured by DePsipher (R&D Systems, Minneapolis, Minn.) according to the manufacturer's procedure. Intracellular caspase activity was measured by Apostat kit (R&D Systems), according to the manufacturer's procedure. The cells were analyzed by Flow cytometry using FACSort (Becton Dickinson) and CellQuest software (Becton Dickinson). […]

[2] = test system: freshly isolated mouse B cells; assay: Spontaneous apoptosis by hypo-diploid nuclei PI staining, primary B cells; format: cell-based; conditions: 1 or 100 μg/ml in ethanol solution
Experimental: Apoptosis was measured by FACS analysis with a hypo-diploid nuclei propidium iodide (PI) staining of freshly isolated mouse B cells treated with amino-phenyl-acetic acid octadec-(Z)-9-enyl ester in ethanol solution. FIGS. 5A-5C: L-12 cells treated with 0, 1 or 100 μg/ml of amino-phenyl-acetic acid octadec-(Z)-9-enyl ester, respectively; FIGS. 5D-5F: L-12 cells treated with 0, 1 or 100 μg/ml of the control reagent 4-methyl-piperazino-acetic acid ethyl ester, respectively; and FIGS. 5G-5I: L-12 cells treated with an ethanol volume corresponding to 0, 1 or to 100 μg/ml of amino-phenyl-acetic acid octadec-(Z)-9-enyl ester in ethanol solution, respectively.
as §1

[3] = test system: Jurkat transformed T cell line; assay: Apoptosis by FACS, hypo-diploid nuclei PI staining, Jurkat cells; format: cell-based, human; conditions: Jurkat tumor line cells; 10 μg in ethanol solution
Experimental: (§2) White bars (left bar of each pair) represent cells treated with 10 μg of amino-phenyl-acetic acid octadec-(Z)-9-enyl ester in ethanol solution, and black bars (right bar of each pair) represent cells treated with 10 μg of the control molecule 4-methyl-piperazino-acetic acid ethyl ester in ethanol solution. The two bars on the left represent freshly isolated T cells and the two bars on the right represent transformed Jurkat cells.
(§3) B or T-cell apoptosis was detected by flow cytometry. Briefly, purified cells were seeded in 24 well plates, 5×10^5 per well, and incubated for 48 h at 37° C. 5% CO2 in the presence of HSP60 (heat shock protein 60) at the indicated concentration of amino-phenyl-acetic acid octadec-(Z)-9-enyl ester. […] The cells were then subjected to flow cytometric analysis; for each sample 10,000 were collected and cell-cycle distribution was analyzed according to relative DNA content (PI staining). […] The cells were then collected, stained by APO-DIRECT TUNNEL kit (Phnxflow, CITY, Calif., USA); mitochondrial potential was measured by DePsipher (R&D Systems, Minneapolis, Minn.) according to the manufacturer's procedure. Intracellular caspase activity was measured by Apostat kit (R&D Systems), according to the manufacturer's procedure. The cells were analyzed by Flow cytometry using FACSort (Becton Dickinson) and CellQuest software (Becton Dickinson).

[4] = test system: human peripheral blood T cells; assay: Apoptosis by FACS, hypo-diploid nuclei PI staining, healthy T cells; format: cell-based; conditions: 10 μg in ethanol solution, versus control molecule
Experimental: as §2, §3

[5] = Light scattering at 90 degrees of aggregates in PBS with 0-20% ethanol; format: physicochemical; parameters: key to intensity of light scattering, relative scale: relative light-scattering intensity; 0% ethanol = 100; conditions: 10 μM in PBS; for intensity of light scattering, relative scale: 90 degrees, 560 nm
Experimental: Light scattering at 90 degrees can be used to assess the amount of aggregates in a solution. Higher readings are indicative of a higher degree of aggregation, while lower readings are indicative of disintegration of aggregates into monomers. A series of 10 μM amino-phenyl-acetic acid octadec-(Z)-9-enyl ester solutions was prepared in PBS containing ethanol concentrations of 0-20%. The intensity of light scattering of each solution was recorded at 90 degrees with a 560 nm beam in a Perkin Elmer fluorimeter. The results, presented in a relative scale with respect to the percent ethanol (% ethanol indicated in brackets), were as follows: 100 (0); 98 (0.5); 90 (1): 75 (2); 45(3); 26 (4); 10 (5); 8 (10); 6 (20).

For CCCCCCCC/C=C\CCCCCCCCOC(=O)C(N)c1ccccc1 (centres unmarked) [amino-phenyl-acetic acid octadec-(Z)-9-enyl ester], the “apoptosis / cell cycle (cells in sub-GO state)” value [1] was “induced massive apoptosis”, the “spontaneous apoptosis / cell-cycle of primary B cells” value [2] was “partially protected from the spontaneous apoptosis” and the apoptosis [3] was 100%. The apoptosis [4] was “no more apoptosis than with a control molecule”, the “ethanol concentration in whose presence micellar aggregates disintegrate” value [5] was “above 4 % ethanol” and the “intensity of light scattering, relative scale” value (“intensity … relative scale” below) ([5]; 0% ethanol) was 100. The “intensity … relative scale” value ([5]; 0.5% ethanol) was 98, the “intensity … relative scale” value ([5]; 1% ethanol) was 90 and the “intensity … relative scale” value ([5]; 2% ethanol) was 75. The “intensity … relative scale” value ([5]; 3% ethanol) was 45, the “intensity … relative scale” value ([5]; 4% ethanol) was 26 and the “intensity … relative scale” value ([5]; 5% ethanol) was 10. The “intensity … relative scale” value ([5]; 10% ethanol) was 8 and the “intensity … relative scale” value ([5]; 20% ethanol) was 6.
